{
  "source": "patent US9416118B2",
  "about": "“Docosahexaenoyl ethanolamides” (The Brigham and Women's Hospital, Inc., priority 2011, dated 2016)",
  "key": {"[1]": {"tested_on": "platelet-PMN aggregates", "assay": "PAF-stimulated platelet-PMN aggregate formation in whole blood", "type": "cell-based, human", "settings": "100 nM PAF", "procedure": "(§1) FIG. 5. […] Human whole blood stimulated with PAF (100 nM) was incubated with 10,17-diHDHEA, 15-HEDPEA or DHEA for 30 min, 37° C. The incubation was stopped via ice-cold RBC lysis buffer. The majority of RBCs were removed and remaining cells were labeled. Platelet-leukocyte aggregate formation or P-selectin mobilization was analyzed using FACS (see Methods). Dose response inhibition of a) platelet-monocyte aggregate formation, b) representative dot plot of platelet-monocyte aggregates, c) platelet-PMN aggregate formation, d) platelet P-selectin mobilization, with indicated products. (diamonds 10,17-diHDHEA; triangles 15-HEDPEA; squares DHEA). Results are mean±SEM of n=5-6 donors. P<0.05 compared to vehicle treatment.\n(§2) Whole blood was incubated with either vehicle, HPLC isolated 10,17-diHDHEA or 15-HEDPEA (0.01-100 nM) for 15 min at 37° C. with intermittent mixing. […] Cells were stained with FITC-anti-human CD41 (1:100, v/v) and PE-anti-human-CD62P (1:100, v/v) for 20 min at 4° C., and were analyzed using a flow cytometry and Cell Quest software as in (23). Cellular composition within whole blood was determined by forward and side scattering as well as cell-specific markers, anti-human-CD41 for platelets, anti-human-CD14 for monocytes and anti-human-CD16 for neutrophils."}, "[2]": {"target": "T1, CB1 receptor (Homo sapiens, UniProt P21554)", "T1 sequence (P21554 whole entry)": "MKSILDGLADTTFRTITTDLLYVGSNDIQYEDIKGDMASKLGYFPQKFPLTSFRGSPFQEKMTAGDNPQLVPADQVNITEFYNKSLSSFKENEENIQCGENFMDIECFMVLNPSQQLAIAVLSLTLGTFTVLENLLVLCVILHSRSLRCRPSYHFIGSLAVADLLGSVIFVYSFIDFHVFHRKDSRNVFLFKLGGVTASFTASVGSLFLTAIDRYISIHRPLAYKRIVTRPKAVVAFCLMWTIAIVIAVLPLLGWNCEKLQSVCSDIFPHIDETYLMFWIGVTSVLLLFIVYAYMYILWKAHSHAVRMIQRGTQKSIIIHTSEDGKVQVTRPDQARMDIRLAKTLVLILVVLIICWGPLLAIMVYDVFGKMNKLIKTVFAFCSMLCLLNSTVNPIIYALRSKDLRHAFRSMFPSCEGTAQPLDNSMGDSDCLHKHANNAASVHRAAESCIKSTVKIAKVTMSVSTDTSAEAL", "assay": "CB1 beta-arrestin receptor activation", "type": "cell-based", "design": "expressed in transfected cells; host or cells: HEK cells", "settings": "HEK cells overexpressing CB1, beta-arrestin system", "procedure": "(§3) FIG. 4. […] Ligand receptor interactions were determined by increases in chemiluminescence generated upon interaction of the EA labeled beta arrestin with the Pro-Link tagged receptor (see Methods). […] See text for more details.\n(§4) To this end, recombinant human CB receptors were overexpressed in a beta-arrestin system as described in Experimental Procedures."}, "[3]": {"tested_on": "platelet-monocyte aggregates", "assay": "PAF-stimulated platelet-monocyte aggregate formation in whole blood", "type": "cell-based, human", "settings": "100 nM PAF; for Decrease of platelet-monocyte aggregate formation: 10 pM compound, human whole blood", "procedure": "as §1\n(§5) Whole blood was incubated with either vehicle, HPLC isolated 10,17-diHDHEA or 15-HEDPEA (0.01-100 nM) for 15 min at 37° C. with intermittent mixing. Vehicle or PAF (100 nM, PAF C-16, Cayman Chemical, Ann Arbor, Mich.) was added for another 30 min at 37° C. with intermittent mixing. Incubation was stopped by ice-cold red blood cell lysis buffer (10 min at 4° C.). Cells were collected using centrifugation (210 g, 5 min, 4° C.) then fixed with 3% formalin (15 min, 4° C.). Cells were stained with FITC-anti-human CD41 (1:100, v/v) and PE-anti-human-CD62P (1:100, v/v) for 20 min at 4° C., and were analyzed using a flow cytometry and Cell Quest software as in (23). Cellular composition within whole blood was determined by forward and side scattering as well as cell-specific markers, anti-human-CD41 for platelets, anti-human-CD14 for monocytes and anti-human-CD16 for neutrophils."}, "[4]": {"tested_on": "platelet-leukocyte aggregates", "assay": "PAF-stimulated platelet-leukocyte aggregate formation in whole blood (overall statements)", "type": "cell-based", "settings": "human whole blood, 100 nM PAF, 0.01-100 nM dose range", "procedure": "as §1, §5"}, "[5]": {"tested_on": "human PMN", "assay": "Microfluidic chamber screening of PMN chemotaxis in an IL-8 gradient", "type": "cell-based", "procedure": "The fabrication and surface modification of the microfluidic devices were prepared as in refs. (9,22). Whole blood (5-10 μl) diluted in HBSS (1:10, v/v) was introduced into the chemotaxis chamber via a cell inlet and neutrophils were captured along the chamber via P-selectin tethering. Next, the transversal gradient of IL-8 (0-10 nM) was introduced to the chemotaxis chamber. After fifteen minutes, novel DHEA metabolites (at a uniform concentration) were introduced to the chemotaxis chamber from the second gradient generator network, and 10 nM IL-8 gradient was maintained Single-cell neutrophil chemotaxis was recorded using microscopy (Nikon, Eclipse E600) equipped with a video camera (Diagnostic, RT Slider) and subject to analysis using ImageJ software (9).\nIn parallel to structure elucidation, chemotactic screening of HPLC isolated DHEA metabolites obtained from mouse brain was carried out utilizing microfluidic chamber (FIG. 1c). After IL-8 (0-10 nM gradient) was introduced to the main channel of the microfluidic device, P-selectin tethered leukocytes rapidly migrated along the IL-8 chemotactic gradient at an average rate of 2.3 μm/min. After 15 min, the mixture of metabolites was infused into the microfluidic main channel while an IL-8 (0-10 nM) gradient was maintained (FIG. 1c, left panel). […] This decrease in chemotaxic velocity was maintained even after the gradient was switched back to IL-8.\nHPLC isolated dioxygenated DHEA products were individually screened for direct PMN actions using microfluidic chambers."}, "[6]": {"tested_on": "platelet P-selectin", "assay": "Platelet P-selectin surface expression in PAF-stimulated whole blood", "type": "cell-based, human", "settings": "10 pM to 100 nM", "procedure": "as §1, §2"}, "[7]": {"target": "T2, human CB2 receptor (Homo sapiens, UniProt P34972)", "T2 sequence (P34972 whole entry)": "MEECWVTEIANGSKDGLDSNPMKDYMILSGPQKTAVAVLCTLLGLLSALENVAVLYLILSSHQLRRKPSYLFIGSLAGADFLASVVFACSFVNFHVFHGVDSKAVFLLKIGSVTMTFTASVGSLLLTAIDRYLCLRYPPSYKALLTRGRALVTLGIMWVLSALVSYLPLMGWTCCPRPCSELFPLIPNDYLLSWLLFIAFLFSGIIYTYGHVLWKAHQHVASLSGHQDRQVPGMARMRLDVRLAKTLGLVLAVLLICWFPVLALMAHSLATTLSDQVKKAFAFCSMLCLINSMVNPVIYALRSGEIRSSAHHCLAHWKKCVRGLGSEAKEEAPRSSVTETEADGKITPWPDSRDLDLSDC", "assay": "CB2 beta-arrestin receptor activation (PathHunter chemiluminescence)", "type": "cell-based", "procedure": "as §3\n(§6) Receptor activation with the CB2 beta arrestin system was carried out essentially as in (20,21). HEK cells stably overexpressing human CB2 receptor tagged with Pro-Link and EA labeled beta-arrestin (Discoverx, Fremont Calif.) were plated at 20,000 cells/well of a 96 well plate. […] Ligand receptor interaction was determined by measuring chemiluminescence using the Pathhunter EFC detection kit (Discoverx, Fremont, Calif.), generated upon coupling of the EA labeled beta arrestin with the Pro-Link tagged receptor, with a plate reader (Envision, Perkin Elmer, Santa Clara, Calif.).\nas §4"}, "[8]": {"tested_on": "mouse ischemia reperfusion second organ lung injury", "assay": "Hind limb ischemia / second organ lung reperfusion injury", "type": "in vivo", "procedure": "Supplemental FIG. 4. 15-HEDPEA is protective in mouse ischemia reperfusion second organ lung injury. Mice were subjected to hind limb ischemia for 1 hr using tourniquets. 15-HEDPEA was intravenously administered 5 min before tourniquet removal. After 2 hr reperfusion, mouse lungs were harvested and the tissue levels of myeloperoxidase (MPO) were determined using a mouse MPO ELISA. Results are expressed as reduction in lung associated decrease in leukocyte myeloperoxidase values (n=3-6).\nMurine hind limb vascular occlusion second organ lung reperfusion injury was performed using 6- to 8-week-old FVB male mice and carried out as in (24)."}, "[9]": {"target": "T2, human CB2 receptor", "assay": "AM630 inhibition of ligand-stimulated activation of cells over-expressing CB2", "type": "cell-based", "procedure": "as §3, §6, §4"}, "[10]": {"target": "T1, CB1 receptor", "settings": "from reference 31; read-out: Ki, affinity to CB1 receptor; cited from earlier work"}, "[11]": {"settings": "10 nM compound, 0-10 nM IL-8 gradient"}, "[12]": {"settings": "HEK cells overexpressing human CB2, beta-arrestin system, 1 h, 37° C., 1 pM to 100 nM, read-out: EC50 for activation of CB2"}},
  "note": "Entries after “also recorded” stand apart in the source; their conditions may differ. Read-outs that look alike come from different tables or passages of the source.",
  "data": [
    {"smiles": "CC/C=C\\C[C@H](O)/C=C/C=C\\C=C\\[C@H](O)C/C=C\\C/C=C\\CCC(=O)NCCO", "note": "(single isomer, unassigned) [10,17-diHDHEA, 10,17-dihydroxydocosa-4Z,7Z,11,13Z,15,19Z-hexaenoylethanolamide]", "values": [
      {"measurement": "Decrease of platelet-PMN aggregates", "setting": "[1]; human whole blood", "result": "25%-35%"},
      {"measurement": "Inhibition of PMN-platelet aggregate formation (in words)", "setting": "[1]; concentrations as low as 10 pM", "result": "inhibited"},
      {"measurement": "Activation of CB1 receptors (in words)", "setting": "[2]", "result": "activated CB1 receptors but required much higher concentrations"},
      {"measurement": "Decrease of platelet-monocyte aggregate formation", "setting": "[3]", "result": "~30", "unit": "%"},
      {"measurement": "Maximum reduction of platelet-monocyte aggregate formation", "setting": "[3]; 100 pM compound, bell-shaped dose response", "result": "~40", "unit": "%"},
      {"measurement": "Effect on platelet-leukocyte aggregate formation (in words)", "setting": "[4]", "result": "prevented formation of platelet-leukocyte aggregates"},
      {"measurement": "Effect on platelet-leukocyte aggregate formation (in words)", "setting": "[4]; listed as 10,17S-diHDHEA", "result": "block PAF-stimulated platelet-leukocyte aggregate formation"},
      {"measurement": "Effect on PMN chemotaxis (in words)", "setting": "[5]; [11]", "result": "did not significantly regulate chemotaxis"},
      {"measurement": "Effect on PMN chemotaxis (in words)", "setting": "[5]; 10 μM compound, IL-8 gradient", "result": "rapidly stopped PMN chemotaxis"},
      {"measurement": "Effect on P-selectin surface expression of platelets (in words)", "setting": "[6]", "result": "blocked P-selectin surface expression"},
      {"measurement": "Effect on P-selectin surface expression of platelets (in words)", "setting": "[6]; listed as 10,17-diHDEA", "result": "inhibited"},
      {"measurement": "EC50", "setting": "[7]; [12]", "result": 0.39, "unit": "nM"}
    ]},
    {"smiles": "CC/C=C\\C[C@H](O)/C=C/C=C\\C/C=C\\C/C=C\\C=C\\[C@H](O)CCC(=O)NCCO", "note": "[4,17-diHDHEA, 4,17-dihydroxydocosa-5,7Z,10Z,13Z,15,19Z-hexaenoylethanolamide]", "values": [
      {"measurement": "Effect on PMN chemotaxis (in words)", "setting": "[5]; [11]", "result": "did not significantly regulate chemotaxis"}
    ]},
    {"smiles": "CC/C=C\\C[C@H](O)/C=C/C=C\\C/C=C\\C=C\\[C@H](O)C/C=C\\CCC(=O)NCCO", "note": "[7,17-diHDHEA, 7,17-dihydroxydocosa-4Z,8E,10Z,13Z,15,19Z-hexaenoylethanolamide]", "values": [
      {"measurement": "Effect on PMN chemotaxis (in words)", "setting": "[5]; [11]", "result": "did not significantly regulate chemotaxis"}
    ]},
    {"smiles": "CCCCC[C@H](O)/C=C/C=C\\C/C=C\\C/C=C\\CCCC(=O)NCCO", "note": "[15(S)-HAEA, 15(S)-HETE ethanolamide, reference compound]", "values": [
      {"measurement": "Stimulation of CB2 receptors (in words)", "setting": "[7]; beta-arrestin system, tested dose range 1 pM to 100 nM", "result": "did not stimulate CB2 receptors"}
    ]},
    {"smiles": "CC/C=C\\CC1OC1C(O)/C=C\\C/C=C\\C/C=C\\C/C=C\\CCC(=O)NCCO", "note": "(centres unmarked) [15-HEDPEA, 15-hydroxy-16(17)-epoxydocosa-4Z,7Z,10Z,13Z,19Z-pentaenoylethanolamide]", "values": [
      {"measurement": "Activation of CB1 receptors (in words)", "setting": "[2]", "result": "activated CB1 receptors but required much higher concentrations"},
      {"measurement": "Decrease of platelet-monocyte aggregate formation", "setting": "[3]", "result": "~30", "unit": "%"},
      {"measurement": "Effect on platelet-leukocyte aggregate formation (in words)", "setting": "[4]", "result": "block PAF-stimulated platelet-leukocyte aggregate formation; also recorded: prevented formation of platelet-leukocyte aggregates"},
      {"measurement": "Effect on PMN chemotaxis (in words)", "setting": "[5]; [11]", "result": "effectively stopped PMN chemotaxis; also recorded: stopped further PMN migration"},
      {"measurement": "Time after which further PMN migration stopped", "setting": "[5]; 10 nM compound, IL-8 gradient", "result": "~4", "unit": "min"},
      {"measurement": "EC50", "setting": "[7]; [12]", "result": 0.1, "unit": "nM"},
      {"measurement": "Reduction of lung PMN infiltration (MPO) compared to vehicle", "setting": "[8]; 1 μg/mouse intravenously, 1 h ischemia, 2 h reperfusion", "result": "~50", "unit": "%"},
      {"measurement": "Organ protection (in words)", "setting": "[8]; mouse reperfusion second organ injury, 1 μg/mouse", "result": "organ protective"}
    ]},
    {"smiles": "COc1ccc(C(=O)c2c(C)n(CCN3CCOCC3)c3cc(I)ccc23)cc1", "note": "[AM630]", "values": [
      {"measurement": "AM630 inhibition of CB2 activation stimulated with 15-HEDPEA", "setting": "[9]; 15-HEDPEA 10 nM", "result": "inhibited activation"},
      {"measurement": "AM630 inhibition of CB2 activation stimulated with AEA", "setting": "[9]; AEA 10 nM, positive control", "result": "inhibited activation"},
      {"measurement": "AM630 inhibition of CB2 interaction with 10,17-diHDHEA", "setting": "[9]; at higher concentration, n=3, data not shown", "result": "inhibited GPCR CB2 interaction"}
    ]},
    {"smiles": "CCC=CCC=CCC=CCC=CCC=CCC=CCCC(=O)NCCO", "note": "[DHEA, docosahexaenoylethanolamide, reference compound]", "values": [
      {"measurement": "Ki", "setting": "[10]", "result": 324, "unit": "nM"},
      {"measurement": "Effect on platelet-leukocyte aggregate formation (in words)", "setting": "[4]", "result": "did not significantly inhibit; also recorded: not active"},
      {"measurement": "EC50", "setting": "[7]", "result": 9.8, "unit": "nM"}
    ]}
  ]
}
